According to patent US9403806B1, “Cognition enhancing compounds and compositions, methods of making, and methods of treating” (NeuroSolis, Inc., priority 2010, dated 2016):
Structures can show the parent of a compound that is named as a salt.

What was measured:
[1] = system: salivary gland inositol phosphate; experiment: In vivo tissue inositol phosphate signaling pathway activation, salivary gland; parameters: species or system Long Evans Hooded rats; settings: rat; for block of increase in salivary gland inositol phosphate caused by Compound 3: Compound 3 1 mg/kg; for inhibition of salivary gland inositol phosphate response to MCD-386: MCD-386 50 mg/kg, antagonist 0.3 mg/kg (FIG. 7)
Method: (§1) Experimental compounds or drug substances were administered using standard techniques to Long Evans Hooded rats weighing 225 to 350 grams, and which had been pretreated with a subcutaneous injection of lithium chloride at a suitable dose between 3 and 10 mmoles per kg. At suitable times the animals were briefly anesthetized using 5% isoflurane and euthanized by decapitation. The brains and submaxillary salivary glands were rapidly dissected out, and the hippocampuses were dissected from the brains. The dissected tissues were homogenized in a suitable volume of ice-cold phosphate-buffered saline containing 10 mM lithium chloride, pH7.4, using a tissue homogenizer, and used immediately or frozen in aliquots at −80 deg C. for future use. The concentration of inositol-1-phosphate was determined in the homogenates using the IPOne TR-FRET assay (CisBio cat no 621PAPEB), following the manufacturer's instruction

[2] = system: anesthetized rats; experiment: Salivation after iontophoretic transdermal co-delivery of agonist and antagonist; assay type: in vivo, Long Evans Hooded rats; settings: anesthetized rat, one patch with 1 mg Compound 3 plus 0.01 mg antagonist
Method: Experimental compounds and drug substances were delivered transdermally in rats using iontophoresis as follows. The fur was shaved from the backs of Long Evans Hooded rats weighing 225 to 325 grams, using electric clippers. Experimental compounds and drug substances were formulated at suitable concentrations an aqueous mixture of the following composition:
The polyvinyl alcohol/water was heated to 95 deg C. until it became clear, then the other constituents were added and mixed well. The mixture was introduced into suitable molds containing a disc-shaped cavity 2.2 cm diameter and 2.2 mm deep. Molds may be fabricated using two glass sheets separated by a silicone rubber sheet with suitable sized cavities and filling ports cut-outs. The molds were subject to 3 freeze-thaw cycles at −80 deg C. and 20 deg C. until a firm cryogel was obtained. The gels were separated from the molds and trimmed into a circular shape. The gel was placed in a silicone rubber casing with one face in contact with a circular silver foil anodic electrode (22 mm dia/250 microns thick), and the assembly was placed on the shaved skin of the rat such that the other face was in contact with the skin on one side of the back of the rat. The rubber casing formed a seal over and around the gel/electrode assembly. […] This was placed on the other side of the shaved back of the rat, the edges of the gel discs being about 20 mm apart at their nearest point. A DC voltage was applied across the two patches from a constant-current DC power supply and the voltage adjusted to obtain the desired current, such that the skin of the animal completed the electrical circuit.
The devices were placed on shaved backs of anesthetized rats and salivation was measured.
(§2) The animals were placed slightly head-down on an inclined, heated ramp. Rectal temperature was monitored using a thermocouple and the temperature of the heating pad was adjusted manually to maintain normal body temperature. Saliva was collected from the mouth by absorption onto pre-weighed slips of filter paper. The filter paper was changed periodically and the amount of saliva was measured by weighing the filter paper slips

[3] = system: hippocampal inositol phosphate; experiment: In vivo tissue inositol phosphate signaling pathway activation, hippocampus; parameters: species or system Long Evans Hooded rats; settings: rat, Compound 3 1 mg/kg; for effect on increase in hippocampal inositol phosphate caused by Compound 3: antagonist 0.03 mg/kg
Method: as §1

[4] = target: T1, human muscarinic M1 receptors (Homo sapiens, UniProt P11229); experiment: IP production in A9L cells with human M1 receptors (IPOne TR-FRET), Example 28; assay type: cell-based; settings: for huM1/A9L Smax: percentage of maximal stimulation by carbachol; for huM1/A9L ED50 relative to CCh*: potency relative to carbachol at its EC50, semi-quantitative
T1 construct: host or cells: A9L cells
T1 sequence (P11229 1-460): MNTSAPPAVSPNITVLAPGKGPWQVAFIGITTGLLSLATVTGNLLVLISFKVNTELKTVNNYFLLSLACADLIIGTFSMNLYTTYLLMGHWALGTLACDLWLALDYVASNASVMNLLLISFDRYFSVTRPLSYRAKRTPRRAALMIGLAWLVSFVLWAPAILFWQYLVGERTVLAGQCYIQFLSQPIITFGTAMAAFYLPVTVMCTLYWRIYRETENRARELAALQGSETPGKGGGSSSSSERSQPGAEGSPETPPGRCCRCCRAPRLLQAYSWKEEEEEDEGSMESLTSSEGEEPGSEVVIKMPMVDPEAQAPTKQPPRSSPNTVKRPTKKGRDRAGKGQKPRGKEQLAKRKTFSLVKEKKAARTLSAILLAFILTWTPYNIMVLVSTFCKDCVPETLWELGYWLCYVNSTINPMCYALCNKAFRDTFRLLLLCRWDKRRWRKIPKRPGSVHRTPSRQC
Method: (§3) Muscarinic M1 and M3 agonist activity was evaluated by measuring the stimulation of inositol phosphate (IP) production in the presence of lithium chloride from A9L cells transfected with expression plasmids containing human muscarinic M1 and M3 receptors, respectively. The cell lines were a gift from Professor W Messer, and the methods were as described in Tejada F R et al. J. Med. Chem. 2006; 49: 7518-31 except that the assay was scaled down to run in 384 well plates, and IP was measured in the cell lysates using the non-isotopic IPOne TR-FRET assay (CIS-BIO, Inc).
(§4) Cells were grown to 90% confluence in 384 well hi-base plates (Greiner Bio-One), compounds were added at suitable concentrations in growth medium containing 10 mM LiCl, buffered with an extra 10 mM HEPES (pH7.4), and incubated for 60 minutes at 37° C. Cells were lysed and assayed for IP following the manufacturer's instructions.
(§5) The value for a full agonist is 100%, while partial agonists give values below 100%.

[5] = target: T2, human muscarinic M3 receptors (Homo sapiens, UniProt P20309); experiment: IP production in A9L cells with human M3 receptors (IPOne TR-FRET), Example 28; assay type: cell-based; settings: for huM3/A9L Smax: percentage of maximal stimulation by carbachol; for huM3/A9L ED50 relative to CCh*: potency relative to carbachol at its EC50, semi-quantitative
T2 construct: host or cells: A9L cells
Method: as §3, §4, §5

[6] = PAMPA test, Example 34
[7] = Blood and brain concentrations (rats), oral gavage; assay type: in vivo, Long-Evans Hooded rats; settings: rat, 10 mg/kg po, 1 hr, relative to MCD-386 = 1.00
Method: Long-Evans Hooded rats (Charles River: male, 250-350 g) were dosed with solutions of test compounds in PBS by oral gavage. At the desired time after dosing, the animals were anesthetized with isoflurane, and then euthanized by cervical dislocation. Blood was obtained by cardiac puncture, transferred to a 1.5 mL microcentrifuge tube containing 15U Heparin, and the plasma recovered after centrifugation. Brains were dissected, weighed, immediately chilled to 4° C., and homogenized using a PowerGen 125 homogenizer in five volumes of ice-cold 2% formic acid. Proteins were precipitated from plasma and brain homogenate with two and five volumes respectively of ice-cold 2% formic acid and clarified by centrifugation. The supernatant was ultra-filtered by centrifugation through a 3K MWCO spin column (Pall Life Sciences), following the manufacturer's instructions. The concentration of compound in the ultra-filtrate was subjected to reverse-phase liquid chromatography using a 150×2.1 mm Agilent C8 reverse-phase column on a Shimadzu Prominence LC, eluting the compounds with a gradient of 2% to 50% of acetonitrile+0.1% formic acid for compound MI-50,382, or an isocratic flow of 2% acetonitrile+0.1% formic acid for the rest of the compounds listed. The concentration of the compound in the column effluent was measured using an Applied Biosystems API-3200 triple quadrupole mass spectrometer equipped with an electrospray sample injection system. The counts of the characteristic parent and product ions of each test compound were converted to concentration units by comparison with a standard calibration curve.

[8] = Metabolites in serum and urine of dosed rats (LC-MS); assay type: in vivo; settings: rat serum or urine, 10 mg/kg po
Method: Oxadiazoles disclosed herein as well as other oxadiazoles were investigated to determine the formation of metabolites. Animals were dosed, blood taken, serum prepared, serum proteins precipitated and ultrafiltrates prepared as described in Example 6. In separate experiments, urine was collected from rats for 16-24 hours after dosing, using standard metabolic cages. The urine container and collected urine were maintained at 4° C. Urine was lyophilized, taken back into water. The uftrafiltrate was prepared by adding formic acid to a final concentration of 1% to the urine samples, then filtered through a 0.2 um nylon membrane. The ultrafiltrate was subjected to LC-MS analysis. Instead of measuring the product ions in Q3, manual Q1 scans of the liquid chromatograph were undertaken, seeking parent ions of potential metabolites of the compounds. The criteria for identifying metabolites were as follows: (1) the ion should be present in the sera or urines of dosed rats, but not in sera or urines from non-dosed rats (2) the ion should be identifiable as a metabolic derivative of the dosed compound (e.g. loss of a functional chemical moiety, addition of a hydroxyl group or a glucuronic acid moiety, etc). Metabolites were determined not to be present if no compound meeting the above criteria could be detected in serum or urine.

[9] = system: anesthetized normal rats; experiment: In vivo measurement of salivation; parameters: species or system Long Evans Hooded rats; settings: rats
Method: as §2, with “Suitable doses of test compounds or drug substances were administered using standard techniques to Long Evans Hooded rats weighing 225 to 350 grams, or CD-1 mice weighing 30 to 50 grams, which had been anesthetized using 2-3.5%% of isoflurane in oxygen. The animals” for “The animals”

[10] = target: T3, human FMO1 Supersomes (Homo sapiens, UniProt Q01740); experiment: Metabolism by flavin monoxygenase 1 (FMO1) Supersomes; assay type: in vitro ADME; settings: after 6 hours (FIG. 2)
T3 construct: purchased BD Biosciences 456241
T3 sequence (Q01740 1-532): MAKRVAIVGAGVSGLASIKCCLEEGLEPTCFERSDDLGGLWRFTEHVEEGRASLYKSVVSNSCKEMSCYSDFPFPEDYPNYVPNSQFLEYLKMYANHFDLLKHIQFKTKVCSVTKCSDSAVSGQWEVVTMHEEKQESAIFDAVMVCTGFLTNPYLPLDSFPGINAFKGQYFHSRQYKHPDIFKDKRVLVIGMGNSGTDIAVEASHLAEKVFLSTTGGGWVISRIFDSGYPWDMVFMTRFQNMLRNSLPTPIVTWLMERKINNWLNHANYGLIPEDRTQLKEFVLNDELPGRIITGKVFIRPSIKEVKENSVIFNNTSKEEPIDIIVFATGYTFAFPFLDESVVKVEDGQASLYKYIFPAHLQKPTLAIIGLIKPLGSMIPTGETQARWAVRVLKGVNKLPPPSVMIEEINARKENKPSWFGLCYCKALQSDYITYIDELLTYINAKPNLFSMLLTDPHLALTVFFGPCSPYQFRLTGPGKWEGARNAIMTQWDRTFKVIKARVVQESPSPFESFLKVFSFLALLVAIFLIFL
Method: […] Aliquots were removed every 10 minutes, and 1% formic acid was added to halt the reaction. Samples were centrifuged, filtered through 0.2 micron spinfilter and the amount of each compound in the supernatants was quantitated using LC/MS/MS.

[11] = antagonist 0.03 mg/kg (FIGS. 8C, 8D)

T2 sequence (P20309 whole entry): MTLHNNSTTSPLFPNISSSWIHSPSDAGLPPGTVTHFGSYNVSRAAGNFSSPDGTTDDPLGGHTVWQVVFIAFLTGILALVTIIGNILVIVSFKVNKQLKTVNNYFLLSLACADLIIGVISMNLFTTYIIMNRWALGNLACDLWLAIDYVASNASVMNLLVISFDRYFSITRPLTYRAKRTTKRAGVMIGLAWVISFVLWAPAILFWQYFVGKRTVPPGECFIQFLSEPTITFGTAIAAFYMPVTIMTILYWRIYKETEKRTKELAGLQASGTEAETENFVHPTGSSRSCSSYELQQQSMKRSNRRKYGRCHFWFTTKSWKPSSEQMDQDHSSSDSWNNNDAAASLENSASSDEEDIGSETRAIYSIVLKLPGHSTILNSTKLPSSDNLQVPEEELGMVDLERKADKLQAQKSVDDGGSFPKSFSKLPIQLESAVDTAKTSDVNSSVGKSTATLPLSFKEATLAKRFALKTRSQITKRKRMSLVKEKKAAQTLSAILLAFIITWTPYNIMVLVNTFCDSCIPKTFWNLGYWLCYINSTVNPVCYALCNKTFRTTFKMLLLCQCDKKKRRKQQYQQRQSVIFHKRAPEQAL

CC(C)[N+](C)(CCOC(=O)C1c2ccccc2Oc2ccccc21)C(C)C [propantheline]
block of increase in salivary gland inositol phosphate caused by Compound 3 [1, 11]: can block | inhibition of salivary gland inositol phosphate response to MCD-386 [1]: virtually completed inhibited | reduction of salivation caused by transdermal iontophoretic delivery of Compound 3 [2]: greatly reduced | effect on increase in hippocampal inositol phosphate caused by Compound 3 [3]: without blocking the increase in hippocampal inositol phosphate

Cc1noc(C2(F)CCCNC2)n1 (stereo not shown) [Compound 35, 5-(3-fluoropiperidin-3-yl)-3-methyl-1,2,4-oxadiazole]
huM1/A9L Smax [4]: 81% | huM1/A9L ED50 relative to CCh* [4]: − (− potency <0.5-0.1x CCh) | huM3/A9L Smax [5]: 70% | huM3/A9L ED50 relative to CCh* [5]: −− (−− potency <0.1x CCh) | Papp ([6]; PAMPA): 16.3 ×10⁻⁶ cm/s

C[N+]1(C)CCC(OC(=O)C(O)(c2ccccc2)C2CCCC2)C1 (stereo not shown) [glycopyrrolate]
block of increase in salivary gland inositol phosphate caused by Compound 3 [1, 11]: can block | inhibition of salivary gland inositol phosphate response to MCD-386 [1]: virtually completed inhibited | reduction of salivation caused by transdermal iontophoretic delivery of Compound 3 [2]: greatly reduced | effect on increase in hippocampal inositol phosphate caused by Compound 3 [3]: without blocking the increase in hippocampal inositol phosphate

[2H]C([2H])([2H])C([2H])([2H])c1noc(C2CN=CNC2)n1 (stereo not shown) [Compound 2c, 3-(1,1,2,2,2-d5-ethyl)-5-(1,4,5,6-tetrahydropyrimidin-5-yl)-1,2,4-oxadiazole hydrochloride]
Brain Cmax (10 mg/kg po) 1 hr MCD-386 = 1.00 [7]: 0.61 | Presence of metabolites (10 mg/kg po) [8]: No

[2H]C([2H])(C)c1noc(C2CN=CNC2)n1 (stereo not shown) [Compound 6c, 3-(1,1-d2-ethyl)-5-(1,4,5,6-tetrahydropyrimidin-5-yl)-1,2,4-oxadiazole hydrochloride]
Brain Cmax (10 mg/kg po) 1 hr MCD-386 = 1.00 [7]: 0.82 | Presence of metabolites (10 mg/kg po) [8]: No

C[N+]1(C)[C@@H]2C[C@@H](OC(=O)[C@H](CO)c3ccccc3)C[C@H]1[C@@H]1O[C@@H]12 [NMS]
block of increase in salivary gland inositol phosphate caused by Compound 3 ([1]; antagonist 0.003 mg/kg): some breakthrough activation | block of increase in salivary gland inositol phosphate caused by Compound 3 ([1]; antagonist 0.03 mg/kg to 0.01 mg/kg): nearly as effective as 0.1 mg/kg | block of increase in salivary gland inositol phosphate caused by Compound 3 ([1]; antagonist 0.1 mg/kg (FIGS. 8A, 8B)): completely block | reduction of salivation caused by transdermal iontophoretic delivery of Compound 3 [2]: greatly reduced | decrease in salivation caused by Compound 3 ([9]; Compound 3 0.3 mg/kg (FIG. 12)): dose-dependent decrease in salivation | reduction in salivation caused by MCD-386 ([9]; MCD-386 1 mg/kg (FIG. 13)): dose-dependent reduction | effect on increase in inositol phosphate in the hippocampus caused by Compound 3 ([3]; antagonist 0.1 mg/kg): does not inhibit

3-methyl-5-(quinuclidin-3-yl)-1,2,4-oxadiazole [Compound 37]
selectivity between M1 and M3 receptors ([4]; huM1 versus huM3 A9L cells): essentially non-selective between M1 and M3 receptors | huM1/A9L Smax [4]: 50-100% | huM1/A9L ED50 relative to CCh* [4]: ++ (++ potency >10x CCh) | huM3/A9L Smax [5]: 50-100% | huM3/A9L ED50 relative to CCh* [5]: ++ (++ potency >10x CCh) | extent of metabolism in FMO Supersomes (in words) [10]: almost completely metabolized | PAMPA Permeability Coefficient (×10^6) ([6]; Table 14): 3.02 ×10^6
